Legend:
[1] = molecular target: Replicase polyprotein 1ab (Severe acute respiratory syndrome coronavirus 2, UniProt P0DTD1); assay: Inhibition of SARS CoV-2 MPro using MCA-AVLQSGFR-Lys(Dnp)-Lys-NH2 as substrate preincubated for 10 mins followed by substrate addition measured for 10 mins by FRET assay
[2] = test system: SARS-CoV-2; assay: Antiviral activity against SARS-CoV-2 infected in African green monkey Vero E6 cells assessed as reduction in viral replication preincubated with compound followed by viral infection for 1 hr measured after 25 to 26 hrs by ELISA; assay type: functional, organism-based, Severe acute respiratory syndrome coronavirus 2
[3] = (§1) Cytotoxicity in African green monkey Vero E6 cells […] by Neutral red release assay; assay type: toxicity, cell-based, Vero C1008; settings: chlorocebus sabaeus, Vero E6 cells
[4] = test system: SARS-CoV-2; assay: Antiviral activity against SARS-CoV-2 USA_WA1/2020 infected in African green monkey Vero E6 cells expressing hACE2 assessed as reduction in virus-induced cytopathic effect incubated for 3 days in presence of P-gp efflux inhibitor by Cell Titer-Glo assay; assay type: functional, organism-based; settings: Severe acute respiratory syndrome coronavirus 2, USA_WA1/2020, Vero C1008, 72 h
[5] = Half life in Sprague-Dawley rat at 2 mg/kg, iv measured for 0.033 to 24 hrs by LC-MS/MS analysis; assay type: ADME, organism-based; settings: in vivo, time 0.033-24 hrs
[6] = Tmax in Sprague-Dawley rat at 2 mg/kg, iv measured for 0.033 to 24 hrs by LC-MS/MS analysis; assay type: ADME, organism-based; settings: in vivo, time 0.033-24 hrs
[7] = Cmax in Sprague-Dawley rat at 2 mg/kg, iv measured for 0.033 to 24 hrs by LC-MS/MS analysis; assay type: ADME, organism-based; set-up: time upper 24 hrs, dose 2 mg/kg, time lower 0.033 hrs, route iv; settings: in vivo
[8] = AUC (0 to t) in Sprague-Dawley rat at 2 mg/kg, iv measured for 0.033 to 24 hrs by LC-MS/MS analysis; assay type: ADME, organism-based; set-up: time lower 0.033 hrs, dose 2 mg/kg, time upper 24 hrs, route iv; settings: in vivo
[9] = AUC (0 to infinity) in Sprague-Dawley rat at 2 mg/kg, iv measured for 0.033 to 24 hrs by LC-MS/MS analysis; assay type: ADME, organism-based; set-up: time 0.033-24 hrs, dose 2 mg/kg, route iv; settings: in vivo
[10] = Volume of distribution in Sprague-Dawley rat at 2 mg/kg, iv measured for 0.033 to 24 hrs by LC-MS/MS analysis; assay type: ADME, organism-based; settings: in vivo, time 0.033-24 hrs
[11] = Clearance in Sprague-Dawley rat at 2 mg/kg, iv measured for 0.033 to 24 hrs by LC-MS/MS analysis; assay type: ADME, organism-based; settings: in vivo, time 0.033-24 hrs
[12] = Half life in Sprague-Dawley rat at 10 mg/kg, po measured for 0.083 to 24 hrs by LC-MS/MS analysis; assay type: ADME, organism-based; settings: in vivo, time 0.083-24 hrs
[13] = Tmax in Sprague-Dawley rat at 10 mg/kg, po measured for 0.083 to 24 hrs by LC-MS/MS analysis; assay type: ADME, organism-based; settings: in vivo, time 0.083-24 hrs
[14] = Cmax in Sprague-Dawley rat at 10 mg/kg, po measured for 0.083 to 24 hrs by LC-MS/MS analysis; assay type: ADME, organism-based; set-up: time lower 0.083 hrs, dose 10 mg/kg, time upper 24 hrs, route po; settings: in vivo
[15] = AUC (0 to t) in Sprague-Dawley rat at 10 mg/kg, po measured for 0.083 to 24 hrs by LC-MS/MS analysis; assay type: ADME, organism-based; set-up: time 0.083-24 hrs, dose 10 mg/kg, route po; settings: in vivo
[16] = AUC (0 to infinity) in Sprague-Dawley rat at 10 mg/kg, po measured for 0.083 to 24 hrs by LC-MS/MS analysis; assay type: ADME, organism-based; set-up: time 0.083-24 hrs, dose 10 mg/kg, route po; settings: in vivo
[17] = Oral bioavailability in Sprague-Dawley rat at 10 mg/kg measured for 0.083 to 24 hrs by LC-MS/MS analysis; assay type: ADME, organism-based; settings: in vivo, time 0.083-24 hrs
[18] = test system: Vero C1008; assay: as §1; assay type: toxicity, cell-based; settings: chlorocebus sabaeus, vero c1008, 600 h; 600 h
[19] = test system: SARS-CoV-2; assay: Antiviral activity against wild-type SARS CoV-2 infected in African green monkey Vero E6 cells assessed as reduction in viral plaque incubated for 3 days; assay type: functional, organism-based; settings: Severe acute respiratory syndrome coronavirus 2, Vero C1008, 72 h
[20] = test system: SARS-CoV-2; assay: Antiviral activity against SARS CoV-2 Alpha infected in African green monkey Vero E6 cells assessed as reduction in viral plaque incubated for 3 days; assay type: functional, organism-based; settings: Severe acute respiratory syndrome coronavirus 2, Alpha, Vero C1008, 72 h
[21] = test system: SARS-CoV-2; assay: Antiviral activity against SARS CoV-2 Delta infected in African green monkey Vero E6 cells assessed as reduction in viral plaque incubated for 3 days; assay type: functional, organism-based; settings: Severe acute respiratory syndrome coronavirus 2, Delta, Vero C1008, 72 h
[22] = test system: SARS-CoV-2; assay: Antiviral activity against SARS CoV-2 Omicron […] infected in African green monkey Vero E6 cells assessed as reduction in viral plaque incubated for 3 days; assay type: functional, organism-based; settings: Severe acute respiratory syndrome coronavirus 2, Vero C1008, 72 h
[23] = Severe acute respiratory syndrome coronavirus 2, Vero C1008

Row | Structure (SMILES) | IC50 [1] [nM] | EC50 [2, 23] [nM] | CC50 at 600 h [3] [nM] | further results
1 | O=C(NCc1cccs1)[C@@H]1CN(C(=O)c2cncc3cc[nH]c23)CCN1c1ccc(Cl)c(Cl)c1 [listing 1 of 2 here] | 250 | 540 | 36000 | –
2 | CN(Cc1cccs1)C(=O)[C@@H]1CN(C(=O)c2cccnc2)CCN1c1ccc(Cl)c(Cl)c1 | 1300 | – | – | –
3 | COc1ccncc1C(=O)N1CCN(c2ccc(Cl)c(Cl)c2)[C@H](C(=O)Nc2cc(F)c(OC)c(F)c2)C1 | 430 | 3100 | – | –
4 | O=C(NCc1cccs1)[C@@H]1CN(C(=O)c2cncc(F)c2)CCN1c1ccc(Cl)c(Cl)c1 | 350 | 1500 | > 100000 | –
5 | COc1cccc2[nH]c(C(=O)N[C@@H](CC(C)C)C(=O)N[C@H](C[C@@H]3CCNC3=O)C(=O)CO)cc12 | – | – | – | EC50 [4]: 220 nM
6 | O=C(NS(=O)(=O)c1cccs1)[C@@H]1CN(C(=O)c2cccnc2)CCN1c1ccc(Cl)c(Cl)c1 | 9500 | – | – | –
7 | O=C(NCc1ccc(F)s1)[C@@H]1CN(C(=O)c2cccnc2)CCN1c1ccc(Cl)c(Cl)c1 | 400 | 1500 | 79000 | –
8 | O=C(NCc1cccs1)[C@@H]1CN(C(=O)c2cc(=O)[nH]c3ccccc23)CCN1c1ccc(Cl)c(Cl)c1 | 270 | 5400 | > 100000 | –
9 | COc1ccncc1C(=O)N1CCN(c2ccc(Cl)c(Cl)c2)[C@H](C(=O)Nc2ccc(OC(F)F)cc2)C1 | 480 | – | – | –
10 | COc1ccc(NC(=O)[C@@H]2CN(C(=O)c3cccnc3)CCN2c2ccc(Cl)c(Cl)c2)cc1 | 200 | 740 | 95000 | –
11 | COc1ccncc1C(=O)N1CCN(c2ccc(Cl)c(Cl)c2)[C@H](C(=O)NCc2cccs2)C1.Cl | 170 | – | – | EC50 ([2]; vero e6): 530 nM; half-life [5]: 18.6 min; Tmax [6]: 1.8 min; Cmax [7]: 1240 ng/mL; AUC(0-t) [8]: 428 ng·h/mL; AUC(0-inf) [9]: 431 ng·h/mL; Vd [10]: 2.07 L/kg; clearance [11]: 77.4 mL/min/kg; half-life [12]: 86.4 min; Tmax [13]: 30 min; Cmax [14]: 81.6 ng/mL; AUC(0-t) [15]: 202 ng·h/mL; AUC(0-inf) [16]: 226 ng·h/mL; bioavailability [17]: 10.5%
12 | O=C(NCc1cccs1)[C@@H]1CN(C(=O)c2cncc3cc[nH]c23)CCN1c1ccc(Cl)c(Cl)c1 [listing 2 of 2 here] | 210 | – | – | EC50 ([2]; vero e6): 530 nM; CC50 [18]: 42000 nM; EC50 [19]: 240 nM; EC50 [20]: 130 nM; EC50 [21]: 220 nM; EC50 [22]: 80 nM
13 | COc1ccncc1C(=O)N1CCN(c2ccc(Cl)c(Cl)c2)[C@H](C(=O)NCc2cccs2)C1 | – | 780 | > 100000 | –
14 | CC(C)(C)[C@H](NC(=O)C(F)(F)F)C(=O)N1C[C@H]2[C@@H]([C@H]1C(=O)N[C@H](C#N)C[C@@H]1CCNC1=O)C2(C)C | – | – | > 100000 | –
15 | COc1cc(OC)c(NC(=O)[C@@H]2CN(C(=O)c3cnccc3OC)CCN2c2ccc(Cl)c(Cl)c2)cc1F | 400 | 1500 | 79000 | –
16 | O=C(NCc1ccc(Br)s1)[C@@H]1CN(C(=O)c2cccnc2)CCN1c1ccc(Cl)c(Cl)c1 | 1800 | – | – | –
17 | O=C(NCc1cccs1)[C@@H]1CN(C(=O)c2cncc(O)c2)CCN1c1ccc(Cl)c(Cl)c1 | 440 | 15000 | – | –
18 | O=C(NCc1cccs1)[C@@H]1CN(C(=O)c2cccnc2)CCN1c1ccc(Cl)c(Cl)c1 | – | 1300 | 100000 | –
19 | O=C(NCc1cccs1)[C@@H]1CN(C(=O)c2cnccc2Cl)CCN1c1ccc(Cl)c(Cl)c1 | 320 | 3100 | > 100000 | –
20 | COc1ccncc1C(=O)N1CCN(c2ccc(Cl)c(Cl)c2)[C@H](C(=O)NCc2ccc(F)s2)C1 [listing 1 of 2 here] | 350 | – | – | EC50 ([2]; vero e6): 1400 nM; CC50 [18]: 100000 nM
21 | COc1ccncc1C(=O)N1CCN(c2ccc(Cl)c(Cl)c2)[C@H](C(=O)NCc2ccc(F)s2)C1 [listing 2 of 2 here] | 410 | 1500 | > 100000 | –
